# What was measured:
# [1] = tested on: rabbit serum obtained by immunizing a rabbit with the SARS-CoV strain Frankfurt 1; format: binding; set-up: Binding of a rabbit serum to linear peptides / Binding of a rabbit serum to looped peptides / Rabbit serum linear peptides / Rabbit serum looped peptides / Binding of a rabbit serum to linear peptides of protein N of SARS-CoV Urbani (Rabbit serum linear peptides) / Binding of a rabbit serum to looped/cyclic peptides of protein N of SARS-CoV Urbani (Rabbit serum looped peptides): unit not given here
# [2] = tested on: antibodies in sera from SARS patients (sera 1a, 1b, 2, 6, 37, 62, London, SARS-yellow, SARS-green); format: binding, human; set-up: Binding of serum 6 to linear peptides of protein X1 of SARS-CoV Urbani / Binding of serum 37 to linear peptides of protein X1 of SARS-CoV Urbani / Binding of serum 6 to looped/cyclic peptide (PEPSCAN-ELISA) / Binding of serum 37 to looped/cyclic peptide (PEPSCAN-ELISA) / Binding of serum 37 to looped/cyclic peptides of protein X1 of SARS-CoV Urbani / Binding of serum 6 to linear peptides of protein X2 / Binding of serum 37 to linear peptides of protein X2 / Binding of serum 37 to looped/cyclic peptides of protein X2 of SARS-CoV Urbani / Binding of serum 6 to linear peptides of protein M of SARS-CoV Urbani / Binding of serum 37 to linear peptides of protein M of SARS-CoV Urbani / Binding of serum 6 to looped/cyclic peptides of protein M of SARS-CoV Urbani / Binding of serum 37 to looped/cyclic peptides of protein M of SARS-CoV Urbani / Binding of serum 6 to linear peptides of protein X3 of SARS-CoV Urbani / Binding of serum 37 to linear peptides of protein X3 of SARS-CoV Urbani / Binding of serum 37 to looped/cyclic peptides of protein X3 of SARS-CoV Urbani / Binding of serum 6 to linear peptides of protein X4 of SARS-CoV Urbani / Binding of serum 37 to linear peptides of protein X4 of SARS-CoV Urbani / Binding of serum 37 to looped/cyclic peptides of protein X4 of SARS-CoV Urbani / Binding of serum 6 to linear peptides of protein X5 of SARS-CoV Urbani / Binding of serum 37 to linear peptides of protein X5 of SARS-CoV Urbani / Binding of serum 37 to looped/cyclic peptides of protein X5 of SARS-CoV Urbani / Binding of serum 6 to linear peptides of protein N of SARS-CoV Urbani / Binding of serum 37 to linear peptides of protein N of SARS-CoV Urbani / Binding of serum 6 to linear peptide (PEPSCAN-ELISA) / Binding of serum 1a to looped/cyclic peptides of protein N of SARS-CoV Urbani / Binding of serum 1b to looped/cyclic peptides of protein N of SARS-CoV Urbani / Binding of serum 2 to looped/cyclic peptides of protein N of SARS-CoV Urbani / Binding of serum 6 to looped/cyclic peptides of protein N of SARS-CoV Urbani / Binding of serum 37 to looped/cyclic peptides of protein N of SARS-CoV Urbani / Binding of serum 62 to looped/cyclic peptides of protein N of SARS-CoV Urbani / Binding of serum London to looped/cyclic peptides of protein N of SARS-CoV Urbani / Binding of serum SARS-green to looped/cyclic peptides of protein N of SARS-CoV Urbani: unit not given here
# [3] = tested on: control sera (pooled serum of ten healthy LUMC hospital workers; commercial negative donor pooled serum from the Dutch bloodbank); format: binding, human; set-up: Binding of Control serum LUMC to linear peptides / Binding of Control serum Blood-bank to linear peptides / Binding of Control serum LUMC to looped peptides / Binding of Control Serum Blood-Bank to Looped peptides / Binding of Control serum LUMC to linear peptides of the protein M of SARS-CoV Urbani / Binding of Control serum Blood-bank to linear peptides of the protein M of SARS-CoV Urbani / Binding of Control serum LUMC to looped peptides of the protein M of SARS-CoV Urbani / Binding of Control Serum Blood-Bank to Looped peptides of the protein M of SARS-CoV Urbani: unit not given here
sequence,measurement,setting,value
SLPFGWLVIGVAFLA,Binding of a rabbit serum to linear peptides,[1],0.4
same,Binding of a rabbit serum to looped peptides,[1],0.1
same,Binding of serum 1a to linear peptides of protein X1 of SARS-CoV Urbani,[2],0.7
same,Binding of serum 1a to looped/cyclic peptide (PEPSCAN-ELISA),[2],0.3
same,Binding of serum 1b to linear peptides of protein X1 of SARS-CoV Urbani,[2],0.6
same,Binding of serum 1b to looped/cyclic peptide (PEPSCAN-ELISA),[2],0.2
same,Binding of serum 2 to linear peptides of protein X1 of SARS-CoV Urbani,[2],0.5
same,Binding of serum 2 to looped/cyclic peptide (PEPSCAN-ELISA),[2],0.2
same,Binding of serum 6 to linear peptides of protein X1 of SARS-CoV Urbani,[2],0.4
same,Binding of serum 6 to looped/cyclic peptide (PEPSCAN-ELISA),[2],0.0
same,Binding of serum 37 to linear peptides of protein X1 of SARS-CoV Urbani,[2],0.6
same,Binding of serum 37 to looped/cyclic peptide (PEPSCAN-ELISA),[2],0.3
same,Binding of serum 62 to linear peptides of protein X1 of SARS-CoV Urbani,[2],0.5
same,Binding of serum 62 to looped/cyclic peptide (PEPSCAN-ELISA),[2],0.3
same,Binding of serum London to linear peptides of protein X1 of SARS-CoV Urbani,[2],0.2
same,Binding of serum London to looped/cyclic peptide (PEPSCAN-ELISA),[2],0.2
same,Binding of serum SARS-green to linear peptides of protein X1 of SARS-CoV Urbani,[2],0.2
same,Binding of serum SARS-green to looped/cyclic peptide (PEPSCAN-ELISA),[2],0.3
same,Binding of serum SARS-yellow to linear peptides of protein X1 of SARS-CoV Urbani,[2],0.4
same,Binding of serum SARS-yellow to looped/cyclic peptide (PEPSCAN-ELISA),[2],0.2
same,Binding of Control Serum Blood-Bank to Looped peptides,[3],0.4
same,Binding of Control serum Blood-bank to linear peptides,[3],0.6
same,Binding of Control serum LUMC to linear peptides,[3],0.6
same,Binding of Control serum LUMC to looped peptides,[3],0.3
SLYMAISPKFTTSLS,Binding of a rabbit serum to linear peptides,[1],0.2
same,Binding of a rabbit serum to looped peptides,[1],0.3
same,Binding of serum 1a to linear peptides of protein X2,[2],0.7
same,Binding of serum 1a to looped/cyclic peptides of protein X2 of SARS-CoV Urbani,[2],0.6
same,Binding of serum 1b to linear peptides of protein X2,[2],0.5
same,Binding of serum 1b to looped/cyclic peptides of protein X2 of SARS-CoV Urbani,[2],0.6
same,Binding of serum 2 to linear peptides of protein X2,[2],0.5
same,Binding of serum 2 to looped/cyclic peptides of protein X2 of SARS-CoV Urbani,[2],0.3
same,Binding of serum 6 to linear peptides of protein X2,[2],0.4
same,Binding of serum 6 to looped/cyclic peptides of protein X2 of SARS-CoV Urbani,[2],0.4
same,Binding of serum 37 to linear peptides of protein X2,[2],0.6
same,Binding of serum 37 to looped/cyclic peptides of protein X2 of SARS-CoV Urbani,[2],0.4
same,Binding of serum 62 to linear peptides of protein X2,[2],0.6
same,Binding of serum 62 to looped/cyclic peptides of protein X2 of SARS-CoV Urbani,[2],0.5
same,Binding of serum London to linear peptides of protein X2,[2],0.6
same,Binding of serum London to looped/cyclic peptides of protein X2 of SARS-CoV Urbani,[2],0.3
same,Binding of serum SARS-green to linear peptides of protein X2,[2],0.6
same,Binding of serum SARS-green to looped/cyclic peptides of protein X2 of SARS-CoV Urbani,[2],0.5
same,Binding of serum SARS-yellow to linear peptides of protein X2,[2],0.6
same,Binding of serum SARS-yellow to looped/cyclic peptides of protein X2 of SARS-CoV Urbani,[2],0.6
same,Binding of Control Serum Blood-Bank to Looped peptides,[3],0.6
same,Binding of Control serum Blood-bank to linear peptides,[3],0.7
same,Binding of Control serum LUMC to linear peptides,[3],0.6
same,Binding of Control serum LUMC to looped peptides,[3],0.9
SMWSFNPETNILLNV,Rabbit serum linear peptides,[1],0.2
same,Rabbit serum looped peptides,[1],0.4
same,Binding of serum 1a to linear peptides of protein M of SARS-CoV Urbani,[2],0.8
same,Binding of serum 1a to looped/cyclic peptides of protein M of SARS-CoV Urbani,[2],0.7
same,Binding of serum 1b to linear peptides of protein M of SARS-CoV Urbani,[2],0.7
same,Binding of serum 1b to looped/cyclic peptides of protein M of SARS-CoV Urbani,[2],0.1
same,Binding of serum 2 to linear peptides of protein M of SARS-CoV Urbani,[2],0.5
same,Binding of serum 2 to looped/cyclic peptides of protein M of SARS-CoV Urbani,[2],0.8
same,Binding of serum 6 to linear peptides of protein M of SARS-CoV Urbani,[2],0.5
same,Binding of serum 6 to looped/cyclic peptides of protein M of SARS-CoV Urbani,[2],0.6
same,Binding of serum 37 to linear peptides of protein M of SARS-CoV Urbani,[2],0.5
same,Binding of serum 37 to looped/cyclic peptides of protein M of SARS-CoV Urbani,[2],0.8
same,Binding of serum 62 to linear peptides of protein M of SARS-CoV Urbani,[2],0.5
same,Binding of serum 62 to looped/cyclic peptides of protein M of SARS-CoV Urbani,[2],0.7
same,Binding of serum London to linear peptides of protein M of SARS-CoV Urbani,[2],0.4
same,Binding of serum London to looped/cyclic peptides of protein M of SARS-CoV Urbani,[2],0.2
same,Binding of serum SARS-green to linear peptides of protein M of SARS-CoV Urbani,[2],0.5
same,Binding of serum SARS-green to looped/cyclic peptides of protein M of SARS-CoV Urbani,[2],0.2
same,Binding of serum SARS-yellow to linear peptides of protein M of SARS-CoV Urbani,[2],0.2
same,Binding of serum SARS-yellow to looped/cyclic peptides of protein M of SARS-CoV Urbani,[2],0.7
same,Binding of Control Serum Blood-Bank to Looped peptides of the protein M of SARS-CoV Urbani,[3],0.8
same,Binding of Control serum Blood-bank to linear peptides of the protein M of SARS-CoV Urbani,[3],0.8
same,Binding of Control serum LUMC to linear peptides of the protein M of SARS-CoV Urbani,[3],0.8
same,Binding of Control serum LUMC to looped peptides of the protein M of SARS-CoV Urbani,[3],0.7
SPLFLIVAALVFLIL,Rabbit serum linear peptides,[1],0.5
same,Rabbit serum looped peptides,[1],0.8
same,Binding of serum 1a to linear peptides of protein X4 of SARS-CoV Urbani,[2],0.6
same,Binding of serum 1a to looped/cyclic peptides of protein X4 of SARS-CoV Urbani,[2],0.6
same,Binding of serum 1b to linear peptides of protein X4 of SARS-CoV Urbani,[2],0.2
same,Binding of serum 1b to looped/cyclic peptides of protein X4 of SARS-CoV Urbani,[2],0.4
same,Binding of serum 2 to linear peptides of protein X4 of SARS-CoV Urbani,[2],0.5
same,Binding of serum 2 to looped/cyclic peptides of protein X4 of SARS-CoV Urbani,[2],0.7
same,Binding of serum 6 to linear peptides of protein X4 of SARS-CoV Urbani,[2],0.2
same,Binding of serum 6 to looped/cyclic peptides of protein X4 of SARS-CoV Urbani,[2],0.3
same,Binding of serum 37 to linear peptides of protein X4 of SARS-CoV Urbani,[2],0.6
same,Binding of serum 37 to looped/cyclic peptides of protein X4 of SARS-CoV Urbani,[2],0.7
same,Binding of serum 62 to linear peptides of protein X4 of SARS-CoV Urbani,[2],0.6
same,Binding of serum 62 to looped/cyclic peptides of protein X4 of SARS-CoV Urbani,[2],0.2
same,Binding of serum London to linear peptides of protein X4 of SARS-CoV Urbani,[2],0.6
same,Binding of serum London to looped/cyclic peptides of protein X4 of SARS-CoV Urbani,[2],0.4
same,Binding of serum SARS-green to linear peptides of protein X4 of SARS-CoV Urbani,[2],0.5
same,Binding of serum SARS-green to looped/cyclic peptides of protein X4 of SARS-CoV Urbani,[2],0.6
same,Binding of serum SARS-yellow to linear peptides of protein X4 of SARS-CoV Urbani,[2],0.3
same,Binding of serum SARS-yellow to looped/cyclic peptides of protein X4 of SARS-CoV Urbani,[2],0.3
same,Binding of Control Serum Blood-Bank to Looped peptides,[3],0.3
same,Binding of Control serum Blood-bank to linear peptides,[3],0.4
same,Binding of Control serum LUMC to linear peptides,[3],0.3
same,Binding of Control serum LUMC to looped peptides,[3],0.5

# Source: patent publication US20070128217A1 (priority 2003, published 2007)
